Source: patent publication US11976047B1, “4,5-bis(4-bromo-phenyl)-1-hexyl-2-(2- methoxyphenyl)-1H-imidazole as an antimicrobial compound” (KING FAISAL UNIVERSITY, priority 2023, dated 2024)

How the values were obtained:
Type in all cases: cell-based
Conditions in all cases: after 10, 20, 40 and 60 minutes at all dilutions 1:100, 1:200, 1:400, 1:800 (summary in words)
Staphylococcus aureus = assay: Antimicrobial screening by agar dilution, Staphylococcus aureus
Method: (§1) The antimicrobial properties of the 4,5-bis(4-bromo-phenyl)-1-hexyl-2-(2-methoxyphenyl)-1H-imidazole was studied by the method of agar dilution. Test solutions of each compound was prepared in concentration of 1% using dimethylformamide as a solvent then they are diluted in physiological solution to obtain the final experimental dilutions 1:100, 1:200, 1:400, 1:800. The effect of these substances are compared with furacillin in a controlled study. The testing microbes used were gram positive bacteria Staphylococcus aureus, gram negative bacteria Pseudomonas aeruginosa and Escherichia coli and Candida albicans fungi were taken. The experiments used for this survey were meat-pentonlu agar (EPA) for cultivation of bacteria and Saburo environment for fungi. Each experiment used 1 ml of test solution on each plate 500 min. Add 2 drops of emulsified with microbes feel. All experimental samples were taken from the agar after 10, 20, 40, 60 minutes in the environment on the basis of Patrk planted. Bacteria were cultivated at a temperature of 37° C. for 1 day and the mushroom was kept in a thermostat for 2 hours at a temperature of 28° C. in the. Then results were checked.

Escherichia coli = assay: Antimicrobial screening by agar dilution, Escherichia coli
Method: as §1

Candida albicans = assay: Antimicrobial (antifungal) screening by agar dilution, Candida albicans
Method: as §1

Pseudomonas aeruginosa = assay: Antimicrobial screening by agar dilution, Pseudomonas aeruginosa
Method: as §1

CCCCCCn1c(-c2ccccc2OC)nc(-c2ccc(Br)cc2)c1-c1ccc(Br)cc1 [4,5-bis(4-bromo-phenyl)-1-hexyl-2-(2-methoxyphenyl)-1H-imidazole]
highest inhibition activity: inhibition activity, Staphylococcus aureus (Staphylococcus aureus) | inhibition activity, Escherichia coli (Escherichia coli) | inhibition activity, Candida albicans (Candida albicans) | inhibition activity, Pseudomonas aeruginosa (Pseudomonas aeruginosa)
